Target: calcium ion-activated chloride channel (Xenopus laevis, UniProt B5SVV6)
Assay: Patch clamp method: two-electrode voltage clamp recording on Xenopus laevis eggs, calcium-dependent chloride channel blocking activity
Format: cell-based
Procedure: Meanwhile, with regard to the novel compound represented by formula 1 according to the present invention, calcium-dependent chloride channel blocking activity was assessed by a patch clamp method according to the following experimental examples. Eggs of African Xenopus laevis were collected through surgical operation, immersed in a Barth's solution [88 mM NaCl, 1 mM KCl, 2.4 mM NaHCO3, 10 mM HEPES, 0.82 mM MgSO4, 0.33 mM Ca(NO3)2, 0.91 mM CaCl2 (all of which were purchased from Sigma Co.); 10 units/mL peniciline, and streptomycin (purchased from Gibco Co.)], and cultured in an incubator at a constant temperature of 18° C. Such prepared eggs were treated using 10 μM ionomycin (Sigma) for 30 minutes. A recording solution (96 mM NaCl, 2 mM KCl, 10 mM HEPES, 3 mM NaOH, 2 mM MgCl2, 0.5 mM EGTA, Sigma) was prepared and the eggs treated with ionomycin were rinsed using the prepared recording solution. Further, the eggs, after treating with 1 μM thapsigargin (Sigma) for 2 hours, were rinsed again using the recording solution to prepare eggs for recording. Next, an intracellular solution was prepared by adding 0.5 mM EGTA and 1 μM chelerythrine (Sigma) to 1 M KCl solution, then, charged in a glass micro-electrode. One of the prepared eggs was placed on a chamber and two micro-electrodes were stuck into both sides of the egg while dripping the recording solution over the egg. According to a protocol corresponding to purposes for experiments, two-electrode voltage clamp recording was executed to measure an electrical current.

[1] = calcium ion-activated chloride channel, Xenopus laevis eggs, two-electrode voltage clamp
[2] = Table 2 upper part, naphthyl compounds of formula 1b (scaffold drawing 37; * = position of naphthyl attachment)

Chain of calcium ion-activated chloride channel (B5SVV6 entry or part of it): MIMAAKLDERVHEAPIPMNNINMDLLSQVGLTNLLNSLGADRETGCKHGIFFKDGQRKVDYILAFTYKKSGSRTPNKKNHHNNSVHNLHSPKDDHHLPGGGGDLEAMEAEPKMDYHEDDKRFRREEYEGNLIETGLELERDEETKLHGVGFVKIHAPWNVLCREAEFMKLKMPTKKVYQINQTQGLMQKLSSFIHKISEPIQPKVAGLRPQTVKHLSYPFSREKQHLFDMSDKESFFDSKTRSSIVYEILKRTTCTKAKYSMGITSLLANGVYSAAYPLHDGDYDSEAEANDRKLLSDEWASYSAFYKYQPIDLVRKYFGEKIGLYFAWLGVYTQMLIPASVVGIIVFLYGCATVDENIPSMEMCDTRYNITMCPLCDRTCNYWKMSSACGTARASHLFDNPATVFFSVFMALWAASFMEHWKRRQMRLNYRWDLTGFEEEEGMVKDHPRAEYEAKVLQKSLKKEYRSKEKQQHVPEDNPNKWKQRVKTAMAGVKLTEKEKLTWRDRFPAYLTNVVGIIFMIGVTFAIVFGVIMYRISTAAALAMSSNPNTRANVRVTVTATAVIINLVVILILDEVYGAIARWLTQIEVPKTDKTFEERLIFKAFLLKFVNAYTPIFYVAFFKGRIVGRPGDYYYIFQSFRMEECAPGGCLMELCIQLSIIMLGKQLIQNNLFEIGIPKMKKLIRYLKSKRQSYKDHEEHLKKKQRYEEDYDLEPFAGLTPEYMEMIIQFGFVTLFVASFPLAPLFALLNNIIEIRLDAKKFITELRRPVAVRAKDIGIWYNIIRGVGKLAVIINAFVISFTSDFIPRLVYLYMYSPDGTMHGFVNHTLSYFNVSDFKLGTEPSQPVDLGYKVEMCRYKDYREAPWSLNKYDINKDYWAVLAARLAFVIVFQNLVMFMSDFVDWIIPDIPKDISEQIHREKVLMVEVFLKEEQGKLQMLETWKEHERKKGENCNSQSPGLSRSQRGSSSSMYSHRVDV

| Compound | IC50 [1] [µM] | IC50 [2] [µM] | IC50 (Table 2 lower part, comparison phenyl anthranilic acid compounds of Korean Patent Registration No. 892591 (scaffold drawing 38)) [µM] |
| --- | --- | --- | --- |
| O=C(O)c1c(Nc2ccc(Br)c3ccccc23)cccc1[N+](=O)[O-] [Compound No. 70, N-((4-bromo)naphthyl)-6-nitroanthranilic acid] | 8.6 |  |  |
| O=C(O)c1ccc([N+](=O)[O-])cc1Nc1ccc([N+](=O)[O-])c2ccccc12 [Compound No. 35, N-((4-nitro)naphthyl)-4-nitroanthranilic acid] | 21.6 |  |  |
| COc1ccc(Nc2cc([N+](=O)[O-])ccc2C(=O)O)c2ccccc12 [Compound No. 36, N-((4-methoxy)naphthyl)-4-nitroanthranilic acid] | 15.2 | 15.2 |  |
| N-naphthyl-4-trifluoromethylanthranilic acid [Compound No. 65] | 54 |  |  |
| N-naphthyl-3-nitroanthranilic acid [Compound No. 28] | 54 |  |  |
| COc1ccc2cccc(Nc3ccc([N+](=O)[O-])cc3C(=O)O)c2c1 [Compound No. 50, N-((7-methoxy)naphthyl)-5-nitroanthranilic acid] | 3.4 | 3.4 |  |
| O=C(O)c1cc([N+](=O)[O-])ccc1Nc1ccccc1 [drawing 38 R1=5-NO2 R3=H, reference compound] |  |  | 42.5 |
| O=C(O)c1cc([N+](=O)[O-])ccc1Nc1ccc(F)c2ccccc12 [Compound No. 41, N-((4-fluoro)naphthyl)-5-nitroanthranilic acid] | 3 |  |  |
| O=C(O)c1cc([N+](=O)[O-])ccc1Nc1cccc2ccccc12 [Compound No. 40, N-naphthyl-5-nitroanthranilic acid] | 5 | 5 |  |
| COc1cccc2cccc(Nc3ccc([N+](=O)[O-])cc3C(=O)O)c12 [Compound No. 51, N-((8-methoxy)naphthyl)-5-nitroanthranilic acid] | 8.6 | 8.6 |  |
| O=C(O)c1cc([N+](=O)[O-])ccc1Nc1ccc(Cl)c2ccccc12 [Compound No. 42, N-((4-chloro)naphthyl)-5-nitroanthranilic acid] | 8 |  |  |
| O=C(O)c1cc([N+](=O)[O-])ccc1Nc1ccc(I)c2ccccc12 [Compound No. 44, N-((4-iodo)naphthyl)-5-nitroanthranilic acid] | 1.2 |  |  |
| COc1cc(Nc2ccc([N+](=O)[O-])cc2C(=O)O)c2ccccc2c1 [Compound No. 46, N-((3-methoxy)naphthyl)-5-nitroanthranilic acid] | 1.8 | 1.8 |  |
| O=C(O)c1cc([N+](=O)[O-])ccc1Nc1ccc(Br)c2ccccc12 [Compound No. 43, N-((4-bromo)naphthyl)-5-nitroanthranilic acid] | 1.5 | 1.5 |  |
| O=C(O)c1ccc([N+](=O)[O-])cc1Nc1cccc2ccccc12 [Compound No. 31, N-naphthyl-4-nitroanthranilic acid] | 8.5 |  |  |
| O=C(O)c1ccc([N+](=O)[O-])cc1Nc1ccc(Br)c2ccccc12 [Compound No. 34, N-((4-bromo)naphthyl)-4-nitroanthranilic acid] | 10.1 |  |  |
| O=C(O)c1cccc([N+](=O)[O-])c1Nc1ccc(Cl)c2ccccc12 [Compound No. 29, N-((4-chloro)naphthyl)-3-nitroanthranilic acid] | 16.6 |  |  |
| COc1ccc(Nc2ccc([N+](=O)[O-])cc2C(=O)O)c2ccccc12 [Compound No. 47, N-((4-methoxy)naphthyl)-5-nitroanthranilic acid] | 2.27 | 2.27 |  |
| COc1ccc2ccccc2c1Nc1ccc([N+](=O)[O-])cc1C(=O)O [Compound No. 45, N-((2-methoxy)naphthyl)-5-nitroanthranilic acid] | 9.1 | 9.1 |  |
| COc1cccc2c(Nc3ccc([N+](=O)[O-])cc3C(=O)O)cccc12 [Compound No. 48, N-((5-methoxy)naphthyl)-5-nitroanthranilic acid] | 9.2 | 9.2 |  |
| O=C(O)c1ccc([N+](=O)[O-])cc1Nc1ccc(Cl)c2ccccc12 [Compound No. 33, N-((4-chloro)naphthyl)-4-nitroanthranilic acid] | 4.8 | 4.8 |  |
| COc1ccc2c(Nc3ccc([N+](=O)[O-])cc3C(=O)O)cccc2c1 [Compound No. 49, N-((6-methoxy)naphthyl)-5-nitroanthranilic acid] | 1.14 | 1.14 |  |
| O=C(O)c1ccc(C(F)(F)F)cc1Nc1ccc(Cl)c2ccccc12 [Compound No. 66, N-((4-chloro)naphthyl)-4-trifluoromethylanthranilic acid] | 5.7 |  |  |
